Assay results: US12410155B2, “Salt form and crystal form of tetrahydrocyclohepta indazole compound” (Zhejiang Yangli Pharmaceutical Technology Co., Ltd., priority 2021, dated 2025)
Read-outs that look alike come from different tables or passages of the source.

How the values were obtained:
[1] = Pharmacokinetic study in rats; format: in vivo; conditions: both sexes, Sprague-Dawley, rat, plasma
Procedure: (3) Pharmacokinetic Study in Rats
Objective: To determine the concentration of the test compound in plasma at various time points after intravenous and intragastric administration in male and female Sprague-Dawley rats using the LC/MS/MS method.
An appropriate amount of the sample was weighed and prepared into a 0.2 mg/ml solution, and stirred until a clear solution was obtained, with 20% SBE-β-CD as the vehicle.
Administration: After an overnight fast, the IV group received intravenous administration at a dose of 1 mg/kg; the PO group received intragastric administration at a dose of 2 mg/kg.
For the intravenous injection group, male and female Sprague-Dawley rats were administered the test compound, and blood samples (200 μL) were collected from the jugular vein at 0.0830, 0.250, 0.500, 1.00, 2.00, 4.00, 6.00, 8.00, 24.0, 32.0, and 48.0 hours post-administration. The samples were placed into commercially available anticoagulant tubes pre-filled with EDTA-K2. For the intragastric administration group, after administering the test compound, blood samples (200 μL) were collected from the jugular vein at 0.250, 0.500, 1.00, 2.00, 4.00, 6.00, 8.00, 24.0, 32.0, and 48.0 hours. These samples were also placed into commercially available anticoagulant tubes pre-filled with EDTA-K2. Following centrifugation (3,200 g, 4° C., 10 minutes), the plasma was transferred to pre-chilled centrifuge tubes, flash-frozen in dry ice, and stored in an ultra-low temperature freezer at −60° C. or lower until LC-MS/MS analysis. Animals were allowed to eat 4 hours post-dosing. The concentration of the test compound in the plasma of rats after intravenous and intragastric administration was determined using the LC/MS/MS method.

[2] = Pharmacokinetic study in Beagle dogs; format: in vivo; conditions: both sexes, dog, plasma, Beagles
Procedure: (4) Pharmacokinetic Study in Beagle Dogs
Objective: To determine the concentration of the test compound in plasma at various time points after intravenous and intragastric administration in male and female Beagle dogs using the LC/MS/MS method.
An appropriate amount of the sample was weighed and prepared into 0.2 mg/mL and 0.3 mg/mL solutions, stirred until a clear solution was obtained, with 20% SBE-β-CD as the vehicle.
Administration: After an overnight fast, the IV group received intravenous administration at a dose of 0.3 mg/kg; the PO group received intragastric administration at a dose of 1 mg/kg.
For the intravenous injection group, Beagle dogs were administered the test compound, and blood samples (800 μL) were collected from the peripheral vein at 0.25, 0.5, 1, 2, 4, 6, 8, 24, 32, 48, 72, and 96 hours post-administration. The samples were placed into commercially available anticoagulant tubes pre-filled with EDTA-K2. For the intragastric administration group, after administering the test compound, blood samples (800 μL) were collected from the peripheral vein at 0.25, 0.5, 1, 2, 4, 6, 8, 24, 32, 48, 72, and 96 hours. These samples were also placed into commercially available anticoagulant tubes pre-filled with EDTA-K2. Following centrifugation (3,200 g, 2-8° C., 10 minutes), the plasma was transferred to pre-chilled centrifuge tubes, flash-frozen in dry ice, and stored in an ultra-low temperature freezer at −60° C. or lower until LC-MS/MS analysis. Animals were allowed to eat 4 hours post-dosing. The concentration of the test compound in the plasma of Beagle dogs after intravenous and intragastric administration was determined using the LC/MS/MS method.

[3] = system: human breast cancer MCF-7 cell subcutaneous xenograft tumor; format: in vivo; conditions: for Tumor volume (mm^3) (Day 0): Day 0 (at grouping); for RTV (Day 21) / Tumor volume (mm^3) (Day 21) / T/C (%) / TGI (%): Day 21
Procedure: (1) In Vivo Pharmacodynamic Study of Breast Cancer MCF-7 Cell Subcutaneous Xenograft Tumor BALB/c Nude Mouse Model
Objective: This study aimed to evaluate the in vivo efficacy of the crystal form C of the compound of formula (I) using a human breast cancer MCF-7 cell subcutaneous xenograft tumor model in nude mice.
Routine digestion with trypsin-EDTA (Gibco) was performed twice a week for passaging.
Cell inoculation: Estrogen pellets (0.36 mg/pellet; IRA) were subcutaneously inoculated into the left dorsum of each mouse. Three days later, 0.2 mL (1×10^7 cells) of MCF-7 cells (mixed with Matrigel; CORNING, volume ratio 1:1) were subcutaneously inoculated into the right dorsum of each mouse. When the average tumor volume reached 188 mm^3, the mice were grouped and the administration of compounds began.
An appropriate amount of the compound of formula (I) was weighed and prepared into 0.1, 0.3, 1, and 3 mg/mL solutions. […] Fulvestrant was used as the commercially available injection Faslodex.
The antitumor efficacy of the compounds was evaluated using Tumor Growth Inhibition (TGI, %) and relative tumor proliferation rate (T/C, %).
The Q value of combined medication index was calculated using the Jin formula. The criteria for judgment were as follows: a Q value of 0.85 to 1.15 indicated […] (+); a Q value>1.15 to 2.0 indicated enhancement (++); a Q value<0.85 to 0.55 indicated antagonism (−); and a Q value<0.55 indicated significant antagonism (−−). The formula was Q=Ea+b/(Ea+Eb−Ea×Eb), where Ea+b was the tumor inhibition rate of the combined medication group, and Ea and Eb were the tumor inhibition rates of the single medication groups, respectively.
Inter-group comparisons were analyzed using one-way ANOVA. […] A p value<0.05 was considered to indicate a significant difference.

[4] = Pharmacokinetic study in mice; format: in vivo; conditions: female, Balb/c, mouse, plasma
Procedure: (2) Pharmacokinetic Study in Mice
Objective: To determine the concentration of the test compound in plasma at various time points after intravenous and intragastric administration in female Balb/c mice using the LC/MS/MS method. To investigate the pharmacokinetic behavior of the crystal form C of the compound of formula (I) in mice and to evaluate its pharmacokinetic characteristics.
Administration: After an overnight fast, the IV group received intravenous administration at a dose of 5 mg/kg; the PO group received intragastric administration at a dose of 10 mg/kg.
For the intravenous injection group, female Balb/c mice were administered the test compound, and blood samples (30 μL) were collected from the saphenous vein at 0.0833, 0.25, 0.5, 1, 2, 4, 8, and 24 hours post-administration. The samples were placed into commercially available anticoagulant tubes pre-filled with EDTA-K2. For the intragastric administration group, after administering the test compound, blood samples (30 μL) were collected from the jugular vein at 0.25, 0.5, 1, 2, 4, 8, 12, and 24 hours. These samples were also placed into commercially available anticoagulant tubes pre-filled with EDTA-K2. Following centrifugation (3,200 g, 4° C., 10 minutes), the plasma was transferred to pre-chilled centrifuge tubes, flash-frozen in dry ice, and stored in an ultra-low temperature freezer at −60° C. or lower until LC-MS/MS analysis. Animals were allowed to eat 4 hours post-dosing. The concentration of the test compound in the plasma of mice after intravenous and intragastric administration was determined using the LC/MS/MS method.

[5] = in vivo; cited from earlier work
breast cancer = conditions: intramuscular injection; cited from earlier work

SMILES: CS(=O)(=O)O.FCCCN1CC[C@H](Nc2cnc(C3=C(CC(F)(F)F)CCCc4c3ccc3[nH]nc(F)c43)cn2)C1
- AUC(0-t) ([1]; IV, 1 mg/kg): 1.71 µM·h
- clearance ([1]; IV, 1 mg/kg): 22.1 mL/min/kg
- half-life ([1]; IV, 1 mg/kg): 10.6 h
- Vd ([1]; IV, 1 mg/kg, read-out: Vdss): 13.6 L/kg
- AUC(0-t) ([1]; PO, 2 mg/kg): 1.63 µM·h
- Cmax ([1]; PO, 2 mg/kg): 87.7 nM
- bioavailability ([1]; PO, 2 mg/kg): 47.7%
- half-life ([1]; PO, 2 mg/kg): 10.3 h
- AUC(0-t) ([2]; IV, 0.3 mg/kg): 1.31 µM·h
- clearance ([2]; IV, 0.3 mg/kg): 3.8 mL/min/kg
- half-life ([2]; IV, 0.3 mg/kg): 24.2 h
- Vd ([2]; IV, 0.3 mg/kg, read-out: Vdss): 7.48 L/kg
- AUC(0-t) ([2]; PO, 1 mg/kg): 2.27 µM·h
- Cmax ([2]; PO, 1 mg/kg): 61 nM
- bioavailability ([2]; PO, 1 mg/kg): 52%
- half-life ([2]; PO, 1 mg/kg): 21.6 h

SMILES: FCCCN1CC[C@H](Nc2cnc(C3=C(CC(F)(F)F)CCCc4c3ccc3[nH]nc(F)c43)cn2)C1
- ORR % ([3]; 1 mg/kg, PO, QD): 0%
- Tumor volume (mm^3) (Day 0) ([3]; 1 mg/kg, PO, QD): 188 ± 12 mm^3
- RTV (Day 21) ([3]; 1 mg/kg, PO, QD): 1.82 ± 0.12
- Tumor volume (mm^3) (Day 21) ([3]; 1 mg/kg, PO, QD): 340 ± 30 mm^3
- DCR % ([3]; 3 mg/kg, PO, QD): 100%
- ORR % ([3]; 3 mg/kg, PO, QD): 0%
- Tumor volume (mm^3) (Day 0) ([3]; 3 mg/kg, PO, QD): 188 ± 13 mm^3
- RTV (Day 21) ([3]; 3 mg/kg, PO, QD): 0.99 ± 0.11
- Tumor volume (mm^3) (Day 21) ([3]; 3 mg/kg, PO, QD): 179 ± 14 mm^3
- Tumor volume (mm^3) (Day 0) ([3]; 10 mg/kg, PO, QD): 188 ± 12 mm^3
- RTV (Day 21) ([3]; 10 mg/kg, PO, QD): 0.75 ± 0.09
- Tumor volume (mm^3) (Day 21) ([3]; 10 mg/kg, PO, QD): 140 ± 18 mm^3
- Tumor volume (mm^3) (Day 0) ([3]; 30 mg/kg, PO, QD): 188 ± 12 mm^3
- RTV (Day 21) ([3]; 30 mg/kg, PO, QD): 0.64 ± 0.07
- Tumor volume (mm^3) (Day 21) ([3]; 30 mg/kg, PO, QD): 121 ± 13 mm^3
- Tolerability in tumor-bearing mice ([3]; 1 to 30 mg/kg, PO, QD): tolerated the crystal form C of the compound of formula (I) well
- AUC(0-t) ([4]; IV, 5 mg/kg): 5.27 µM·h
- clearance ([4]; IV, 5 mg/kg): 30.2 mL/min/kg
- half-life ([4]; IV, 5 mg/kg): 5.16 h
- Vd ([4]; IV, 5 mg/kg, read-out: Vdss): 11.1 L/kg
- AUC(0-t) ([4]; PO, 10 mg/kg): 5.86 µM·h
- Cmax ([4]; PO, 10 mg/kg): 779 nM
- bioavailability ([4]; PO, 10 mg/kg): 55.4%
- half-life ([4]; PO, 10 mg/kg): 4.72 h

SMILES: C[C@]12CC[C@@H]3c4ccc(O)cc4C[C@@H](CCCCCCCCC[S+]([O-])CCCC(F)(F)C(F)(F)F)[C@H]3[C@@H]1CC[C@@H]2O (stereo partly drawn) [Fulvestrant, reference compound]
- oral bioavailability [5]: near-zero
- DCR % ([3]; 5 mg/mouse, SC, QW): 0%
- Tumor volume (mm^3) (Day 0) ([3]; 5 mg/mouse, SC, QW): 188 ± 12 mm^3
- RTV (Day 21) ([3]; 5 mg/mouse, SC, QW): 3.12 ± 0.31
- T/C (%) ([3]; 5 mg/mouse, SC, QW): 46.9%
- TGI (%) ([3]; 5 mg/mouse, SC, QW): 60.9%
- Tumor volume (mm^3) (Day 21) ([3]; 5 mg/mouse, SC, QW): 593 ± 79 mm^3
- Tumor volume (mm^3) (Day 21) ([3]; 5 mg/mouse, SC, QW, listed as fulvestrant): 593 mm^3
- breast cancer patients showing a clinical response (breast cancer): about 50%

SMILES: CC(=O)c1c(C)c2cnc(Nc3ccc(N4CCNCC4)cn3)nc2n(C2CCCC2)c1=O [Palbociclib, reference compound]
- DCR % ([3]; 25 mg/kg, PO, QD): 12.5%
- ORR % ([3]; 25 mg/kg, PO, QD): 0%
- Tumor volume (mm^3) (Day 0) ([3]; 25 mg/kg, PO, QD): 188 ± 12 mm^3
- RTV (Day 21) ([3]; 25 mg/kg, PO, QD): 4.26 ± 0.51
- T/C (%) ([3]; 25 mg/kg, PO, QD): 64.0%
- TGI (%) ([3]; 25 mg/kg, PO, QD): 42.8%
- Tumor volume (mm^3) (Day 21) ([3]; 25 mg/kg, PO, QD): 781 ± 77 mm^3
- Tumor volume (mm^3) (Day 21) ([3]; 25 mg/kg, PO, QD, listed as palbociclib): 781 mm^3
